Data on 19 compounds can be found in ChEMBL document CHEMBL3351827, “Design, synthesis and evaluation of novel 5-phenylpyridin-2(1H)-one derivatives as potent reversible Bruton's tyrosine kinase inhibitors” (Bioorg Med Chem, 2015).

Calls of active or inactive are those of the source.

For data set [1], the target named is T1, Tyrosine-protein kinase BTK (Homo sapiens, UniProt Q06187). Kind of data set: Inhibition of BTK in human Ramos cells assessed as reduction in IgM-induced calcium influx incubated for 20 mins by Fluo-4 dye based fluorescence assay. It is filed as cell-based.
T1 sequence (Q06187 whole entry): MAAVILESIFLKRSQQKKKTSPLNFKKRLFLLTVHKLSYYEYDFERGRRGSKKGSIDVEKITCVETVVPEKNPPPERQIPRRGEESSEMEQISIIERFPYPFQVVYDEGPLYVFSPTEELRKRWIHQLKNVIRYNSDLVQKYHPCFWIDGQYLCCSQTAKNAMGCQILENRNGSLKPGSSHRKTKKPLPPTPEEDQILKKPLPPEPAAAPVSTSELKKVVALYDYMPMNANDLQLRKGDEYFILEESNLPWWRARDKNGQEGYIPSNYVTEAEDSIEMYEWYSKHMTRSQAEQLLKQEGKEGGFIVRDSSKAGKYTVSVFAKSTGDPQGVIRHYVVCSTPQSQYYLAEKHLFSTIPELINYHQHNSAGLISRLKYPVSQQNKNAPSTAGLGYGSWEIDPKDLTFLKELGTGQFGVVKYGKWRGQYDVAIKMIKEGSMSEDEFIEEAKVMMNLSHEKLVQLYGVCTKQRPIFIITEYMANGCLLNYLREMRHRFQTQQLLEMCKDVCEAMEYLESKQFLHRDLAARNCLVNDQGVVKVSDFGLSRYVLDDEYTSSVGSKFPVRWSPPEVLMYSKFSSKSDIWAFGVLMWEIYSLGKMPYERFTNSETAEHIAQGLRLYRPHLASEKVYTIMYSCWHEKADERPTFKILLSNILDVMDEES
Data set [2] deals with T1, Tyrosine-protein kinase BTK. The data set can be described thus: Inhibition of BTK (unknown origin) using biotin-labeled peptide substrate incubated for 1 hr by TR-FRET based HTRF kinase assay. (In TR-FRET formats the signal depends on donor and acceptor labels being close together.)
The nature of data set [3]: Clearance in Sprague-Dawley rat at 2 mg/kg, po measured during 2 mins to 24 hrs period post dose by LC/MS/MS method. It is filed as ADME, organism-based. The arrangement: dose 2 mg/kg, route oral. Particulars: in vivo.
Data set [4] can be described thus: Mean residence time (0 to t) in Sprague-Dawley rat at 1 mg/kg, iv measured during 2 mins to 24 hrs period post dose by LC/MS/MS method. It is filed as ADME, organism-based. More on the design: dose 1 mg/kg, route intravenous. Particulars: in vivo.
A short description of data set [5]: Half life in Sprague-Dawley rat at 2 mg/kg, po measured during 2 mins to 24 hrs period post dose by LC/MS/MS method. More on the design: dose 2 mg/kg, route oral. It is filed as ADME, organism-based. The conditions noted are these: in vivo.
A short description of data set [6]: Clearance in Sprague-Dawley rat at 1 mg/kg, iv measured during 2 mins to 24 hrs period post dose by LC/MS/MS method. In kind it is ADME, organism-based. The arrangement: dose 1 mg/kg, route intravenous. Particulars: in vivo.
The nature of data set [7]: Oral bioavailability in Sprague-Dawley rat at 2 mg/kg measured during 2 mins to 24 hrs period post dose by LC/MS/MS method. It is filed as ADME, organism-based. The conditions noted are these: in vivo.
In data set [8] the test system is Rattus norvegicus. Kind of data set: Apparent volume of distribution in Sprague-Dawley rat at 2 mg/kg, po measured during 2 mins to 24 hrs period post dose by LC/MS/MS method. It is filed as ADME, organism-based. More on the design: dose 2 mg/kg, route oral. Particulars: in vivo.
Data set [9] is described as follows: Cmax in Sprague-Dawley rat at 2 mg/kg, po measured during 2 mins to 24 hrs period post dose by LC/MS/MS method. The arrangement: dose 2 mg/kg, route oral. The conditions noted are these: in vivo. In kind it is ADME, organism-based.
The nature of data set [10]: AUC in Sprague-Dawley rat at 1 mg/kg, iv measured during 2 mins to 24 hrs period post dose by LC/MS/MS method. The arrangement: time 0.033-24 hr, dose 1 mg/kg, route intravenous. The conditions noted are these: plasma. In kind it is ADME, organism-based.
The nature of data set [11]: Cmax in Sprague-Dawley rat at 1 mg/kg, iv measured during 2 mins to 24 hrs period post dose by LC/MS/MS method. It is filed as ADME, organism-based. The arrangement: dose 1 mg/kg, route intravenous. Particulars: in vivo.
The nature of data set [12]: Mean residence time (0 to t) in Sprague-Dawley rat at 2 mg/kg, po measured during 2 mins to 24 hrs period post dose by LC/MS/MS method. In kind it is ADME, organism-based. The arrangement: dose 2 mg/kg, route oral. Particulars: in vivo.
The subject of data set [13] is Rattus norvegicus. The data set can be described thus: Inhibition of collagen-induced arthritis in Wistar rat assessed as reduction in disease progression at 20 mg/kg, po dosed for 13 days starting from day 14 post collagen challenge. It is filed as functional, organism-based. More on the design: dose 20 mg/kg.
Data set [14] can be described thus: Half life in Sprague-Dawley rat at 1 mg/kg, iv measured during 2 mins to 24 hrs period post dose by LC/MS/MS method. In kind it is ADME, organism-based. The arrangement: dose 1 mg/kg, route intravenous. Particulars: in vivo.
Data set [15] is described as follows: AUC in Sprague-Dawley rat at 2 mg/kg, po measured during 2 mins to 24 hrs period post dose by LC/MS/MS method. It is filed as ADME, organism-based. The arrangement: time upper 24 hr, time lower 0.033 hr, dose 2 mg/kg, route oral. The conditions noted are these: plasma.
A short description of data set [16]: Apparent volume of distribution in Sprague-Dawley rat at 1 mg/kg, iv measured during 2 mins to 24 hrs period post dose by LC/MS/MS method. It is filed as ADME, organism-based. More on the design: dose 1 mg/kg, route intravenous. The conditions noted are these: in vivo, read-out: Vz.
Data set [17] is filed under the species Rattus norvegicus. The conditions noted are these: Wistar, 6 mg/kg.
Description: Inhibition of collagen-induced arthritis in Wistar rat assessed as reduction in disease progression at 6 mg/kg, po dosed for 13 days starting from day 14 post collagen challenge
In data set [18] the test system is Rattus norvegicus. The data set can be described thus: Toxicity in Wistar rat model of collagen-induced arthritis assessed reduction in body weight at 6 and 20 mg/kg, po dosed for 13 days starting from day 14 post collagen challenge. More on the design: dose 20 mg/kg, route oral. The conditions noted are these: in vivo, 312 h. It is filed as organism-based.

As usually defined, the IC50 is the midpoint of a concentration-inhibition curve. What is called CL/F is the apparent clearance, not corrected for the fraction that reaches the circulation. Usually MRT last stands for the average time that molecules of a dose stay in the body. In general, half-life refers to the time needed for the level to fall by half in the phase considered. Broadly, the clearance is a measure of how efficiently the substance is removed, as volume per time. A high value points to a high capacity for elimination. As usually defined, the bioavailability is dose-corrected exposure relative to a reference, in per cent. The low end stands for little systemic uptake, the high end for much systemic uptake. For orientation: Cmax means the highest concentration seen after dosing. One may read the AUC as concentration integrated over time. The low end stands for less exposure, the high end for more exposure.

`CN1CCN(c2ccc(Nc3cc(-c4cccc(-n5ccc6cc(N(C)C)ncc6c5=O)c4CO)cn(C)c3=O)nc2)CC1`: the IC50 is 1.03 µM in [1] and 0.431 µM in [2].
For `Cc1c(-c2cc(Nc3ccc(N4CCN(C)CC4)cn3)c(=O)n(C)c2)cccc1-n1ccc2cc(C3CC3)cc(F)c2c1=O`, the IC50 in data set [1] stood at 0.254 µM; in [2] it was 0.365 µM.
The compound `CN1CCN(c2ccc(CNc3cc(-c4cccc(-n5ccc6cc(C7CC7)cc(F)c6c5=O)c4CO)cn(C)c3=O)cc2)CC1` displayed an IC50 in data set [2] of over 5 µM.
`CN1CCN(c2ccc(Nc3cc(-c4cccc(-n5ccc6cc(C7CC7)cc(F)c6c5=O)c4CO)cn(C)c3=O)nc2)CC1` showed an apparent clearance (CL/F) in data set [3] of 84.5 mL/min/kg. For the same compound, the MRT last in data set [4] amounted to 6.56 h; in data set [12] it was 9.31 h. Also, the half-life in data set [5] was 11.5 h; in [14], 14.1 h. Also, the clearance in [6] was 41.2 mL/min/kg. Besides, the bioavailability in data set [7] amounted to 49.9%. Besides, in data set [8], the Vz was determined as 86.69 L/kg. For the same compound, the Cmax in [9] was 34.8 ng/mL; in [11], 220 ng/mL. Besides, the area under the curve (AUC) in [10] amounted to 404 ng·h/mL; in data set [15], 403 ng·h/mL. Besides, in data set [13], the inhibition entry was “Active”. The Vd in data set [16] turned out to be 50.5 L/kg.
`Cc1c(-c2cc(Nc3ccc(N4CCN(C)CC4)cn3)c(=O)n(C)c2)cccc1-c1nc2cc(C(C)(C)C)ccc2[nH]1` had an IC50 in data set [2] of over 5 µM.
For the compound `CN1CC(N2CCN(c3ccc(Nc4cc(-c5cccc(-n6ccc7cc(C8CC8)cc(F)c7c6=O)c5CO)cn(C)c4=O)nc3)CC2)C1`, the IC50 was 0.033 µM in data set [1] and 0.009 µM in [2].
Regarding `Cc1c(-c2cc(Nc3ccc(N4CCN(C5COC5)CC4)cn3)c(=O)n(C)c2)cccc1-n1ccc2cc(C3CC3)cc(F)c2c1=O`, the IC50 in data set [1] is 0.171 µM; in data set [2], 0.203 µM.
Turning to `Cn1cc(-c2cccc(-n3ccc4cc(C5CC5)cc(F)c4c3=O)c2CO)cc(Nc2ccc(N3CCN(C(=O)C4CC4)CC3)cn2)c1=O`, the IC50 in [1] turned out to be 4.36 µM; in data set [2] it was 0.028 µM.
`Cn1cc(-c2cccc(-n3ccc4cc(C5CC5)cc(F)c4c3=O)c2CO)cc(Nc2ccc(N3CCN(C4COC4)CC3)cn2)c1=O` showed a CL/F in data set [3] of 13.5 mL/min/kg. The values for the MRT last in data set [4] and in data set [12] were 6.48 h and 8.78 h, respectively. Also, the half-life in data set [5] is 11.5 h; in data set [14], 13.6 h. In [6], this compound showed a clearance of 7.83 mL/min/kg. In data set [7], this compound yielded a bioavailability of 58.4%. Further, the inhibition result in data set [17] and in [13] was “Active” throughout. Further, in data set [8], the Vz is 13.4 L/kg. Besides, the Cmax in data set [9] amounted to 170 ng/mL; in data set [11], 1090 ng/mL. Besides, the AUC in [10] amounted to 1670 ng·h/mL; in [15] it was 1950 ng·h/mL. Also, the Activity result in data set [18] is on record as “Non-toxic”. Moreover, the IC50 came out at 0.008 µM in [1] and 0.016 µM in data set [2]. Besides, the Vd in data set [16] is 9.28 L/kg.
For the compound `Cn1cc(-c2cccc(-n3ccc4cc(C5CC5)cc(F)c4c3=O)c2CO)cc(Nc2ccc(C3CCN(C4COC4)CC3)cn2)c1=O`, the values for the IC50 in data set [1] and in data set [2] were 0.021 µM and 0.02 µM, respectively.
The compound `CN1CCN(c2ccc(Nc3cc(-c4cccc(-n5ccc6ccccc6c5=O)c4CO)cn(C)c3=O)nc2)CC1` had an IC50 in data set [2] of 1.03 µM.
Take `CN1CCN(c2ccc(Nc3cc(-c4cccc(-n5ccc6nc(C7CC7)ccc6c5=O)c4CO)cn(C)c3=O)nc2)CC1`: the 50% inhibitory concentration (IC50) in [1] came to 3.25 µM; in data set [2], 0.564 µM.
Turning to `Cc1c(-c2cc(Nc3ccc(N4CCN(C)CC4)cn3)c(=O)n(C)c2)cccc1N1C(=O)c2ccc(C(C)(C)C)cc2C1=O`, the half-maximal inhibitory concentration (IC50) in [2] is over 5 µM.
With `CN1CCN(c2ccc(Nc3cc(-c4cccc(-n5ccc6cc(C7CC7)ncc6c5=O)c4CO)cn(C)c3=O)nc2)CC1`, the values for the IC50 in data set [1] and in data set [2] were 0.124 µM and 0.255 µM, respectively.
On to `CN1CCN(c2ccc(Nc3cc(-c4cccc(-n5ccc6cc(C7CC7)cc(F)c6c5=O)c4)cn(C)c3=O)nc2)CC1`, for which the IC50 in data set [1] came out at 0.472 µM; in [2], 0.503 µM.
`Cc1c(NC(=O)c2ccc(C(C)(C)C)cc2)cccc1-c1cc(Nc2ccc(N3CCN(C)CC3)cn2)c(=O)n(C)c1`: the IC50 in data set [1] was over 5 µM; in [2] it was 0.875 µM.
As to `CN1CCN(c2ccc(C(=O)Nc3cc(-c4cccc(-n5ccc6cc(C7CC7)cc(F)c6c5=O)c4CO)cn(C)c3=O)cc2)CC1`, the IC50 in [1] is over 5 µM; in data set [2], 0.818 µM.
As for `Cc1c(Nc2ncnc3ccccc23)cccc1-c1c[nH]c(=O)c(Nc2ccc(N3CCN(C)CC3)cn2)c1C`, the IC50 in [2] is over 5 µM.
`CN1CCN(c2ccc(Nc3cc(-c4cccc(-n5ccc6cc(C7CC7)ccc6c5=O)c4CO)cn(C)c3=O)nc2)CC1`: the IC50 was 0.115 µM in [1] and 0.037 µM in data set [2].
